The species entered for one test is Homo sapiens. As to the kind of experiment: In vitro significant inhibitory activity against human colon […]. To be noted: read-out: ID50 (the source's name). The format is functional.
The next test concerns L1210. As to the kind of experiment: In vitro significant inhibitory activity against L1210 leukemia cell lines. The format is functional. To be noted: Mus musculus, read-out: ID50 (the source's name).

pIC50: −log10 of the molar value.

Here are results for three compounds from ChEMBL document CHEMBL1123446, “Amino-substituted p-benzoquinones” (1986).

For the compound `CN(C)Cc1ccc(NC2=C(Br)C(=O)C(Nc3ccc(CN(C)C)cc3)=C(Br)C2=O)cc1`, the pIC50 in the test filed under Homo sapiens was 6.85.
In the case of `CN(C)Cc1ccc(NC2=C(Cl)C(=O)C(Nc3ccc(CN(C)C)cc3)=C(Cl)C2=O)cc1`, the results for the pIC50 in the test listed under Homo sapiens and in the test on L1210 were 7.00 and 7.43, respectively.
For the compound `CO[C@H](C(=O)[C@@H](O)[C@@H](C)O)[C@@H]1Cc2cc3cc(O[C@H]4C[C@@H](O[C@@H]5C[C@@H](O)[C@H](O)[C@@H](C)O5)[C@H](O)[C@@H](C)O4)c(C)c(O)c3c(O)c2C(=O)[C@H]1O[C@H]1C[C@@H](O[C@@H]2C[C@@H](O)[C@@H](O[C@@H]3C[C@](C)(O)[C@H](O)[C@@H](C)O3)[C@@H](C)O2)[C@H](O)[C@@H](C)O1` [PLICAMYCIN], in the test listed under Homo sapiens, the pIC50 was 7.10.
